# Experimental data as given in patent US20210300940A1 (Merck Patent GmbH, priority 2018, published 2021).
# How the values were obtained:
# TLR7 = target: T1, TLR7 (Homo sapiens, UniProt Q9NYK1); experiment: HEK/293 TLR7 Cell Assay; assay type: cell-based; conditions: TLR7/NFKb HEK cells, R848 agonist 10 uM final concentration, Steady-Glo readout; read-out: TLR7 potency
# T1 construct: expressed in transfected cells; host or cells: HEK/293 cells carrying TLR7 and an NF-kB luciferase reporter
# T1 sequence (Q9NYK1 27-1049): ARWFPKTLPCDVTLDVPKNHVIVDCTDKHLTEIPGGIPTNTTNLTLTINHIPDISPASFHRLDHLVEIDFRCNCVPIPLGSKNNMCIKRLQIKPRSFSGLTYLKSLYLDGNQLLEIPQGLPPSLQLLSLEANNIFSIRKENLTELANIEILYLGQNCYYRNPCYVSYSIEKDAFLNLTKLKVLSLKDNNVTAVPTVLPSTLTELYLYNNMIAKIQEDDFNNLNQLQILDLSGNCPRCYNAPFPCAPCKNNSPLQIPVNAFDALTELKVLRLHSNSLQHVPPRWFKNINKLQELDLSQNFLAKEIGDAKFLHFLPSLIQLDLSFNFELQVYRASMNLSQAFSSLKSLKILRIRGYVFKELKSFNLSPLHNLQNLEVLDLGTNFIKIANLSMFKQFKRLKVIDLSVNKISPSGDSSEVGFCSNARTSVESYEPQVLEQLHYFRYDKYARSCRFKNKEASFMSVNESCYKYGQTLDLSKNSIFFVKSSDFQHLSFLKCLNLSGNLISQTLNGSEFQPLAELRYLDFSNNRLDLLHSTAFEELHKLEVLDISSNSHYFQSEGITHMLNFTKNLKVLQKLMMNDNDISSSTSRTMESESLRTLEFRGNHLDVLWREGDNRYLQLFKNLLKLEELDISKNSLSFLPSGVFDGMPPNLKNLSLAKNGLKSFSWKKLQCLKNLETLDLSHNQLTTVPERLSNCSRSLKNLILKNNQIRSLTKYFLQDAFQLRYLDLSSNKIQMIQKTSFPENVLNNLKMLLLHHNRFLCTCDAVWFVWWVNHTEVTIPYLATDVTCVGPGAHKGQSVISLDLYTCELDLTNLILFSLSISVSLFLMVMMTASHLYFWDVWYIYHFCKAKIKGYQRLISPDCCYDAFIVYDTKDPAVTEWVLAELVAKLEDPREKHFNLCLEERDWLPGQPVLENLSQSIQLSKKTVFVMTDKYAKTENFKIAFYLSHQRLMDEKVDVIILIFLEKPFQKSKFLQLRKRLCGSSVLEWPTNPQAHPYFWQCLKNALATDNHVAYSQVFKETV
# How it was run: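 TLR7/NF-κB reporter HEK293 cells, 5000/well, cultured 24 h, then preincubated 30 min with compound before R848 agonist (10 uM final). After 5 h stimulation, Steady-Glo luciferase luminescence read.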
# TLR8 = target: T2, TLR8 (Homo sapiens, UniProt Q9NR97); experiment: HEK/293 TLR8 Cell Assay; assay type: cell-based; conditions: HEK cells, R848 agonist 30 uM final concentration, Steady-Glo readout; read-out: TLR8 potency
# T2 construct: expressed in transfected cells; host or cells: HEK/293 reporter cells (NF-kB luciferase)
# T2 sequence (Q9NR97 27-1041): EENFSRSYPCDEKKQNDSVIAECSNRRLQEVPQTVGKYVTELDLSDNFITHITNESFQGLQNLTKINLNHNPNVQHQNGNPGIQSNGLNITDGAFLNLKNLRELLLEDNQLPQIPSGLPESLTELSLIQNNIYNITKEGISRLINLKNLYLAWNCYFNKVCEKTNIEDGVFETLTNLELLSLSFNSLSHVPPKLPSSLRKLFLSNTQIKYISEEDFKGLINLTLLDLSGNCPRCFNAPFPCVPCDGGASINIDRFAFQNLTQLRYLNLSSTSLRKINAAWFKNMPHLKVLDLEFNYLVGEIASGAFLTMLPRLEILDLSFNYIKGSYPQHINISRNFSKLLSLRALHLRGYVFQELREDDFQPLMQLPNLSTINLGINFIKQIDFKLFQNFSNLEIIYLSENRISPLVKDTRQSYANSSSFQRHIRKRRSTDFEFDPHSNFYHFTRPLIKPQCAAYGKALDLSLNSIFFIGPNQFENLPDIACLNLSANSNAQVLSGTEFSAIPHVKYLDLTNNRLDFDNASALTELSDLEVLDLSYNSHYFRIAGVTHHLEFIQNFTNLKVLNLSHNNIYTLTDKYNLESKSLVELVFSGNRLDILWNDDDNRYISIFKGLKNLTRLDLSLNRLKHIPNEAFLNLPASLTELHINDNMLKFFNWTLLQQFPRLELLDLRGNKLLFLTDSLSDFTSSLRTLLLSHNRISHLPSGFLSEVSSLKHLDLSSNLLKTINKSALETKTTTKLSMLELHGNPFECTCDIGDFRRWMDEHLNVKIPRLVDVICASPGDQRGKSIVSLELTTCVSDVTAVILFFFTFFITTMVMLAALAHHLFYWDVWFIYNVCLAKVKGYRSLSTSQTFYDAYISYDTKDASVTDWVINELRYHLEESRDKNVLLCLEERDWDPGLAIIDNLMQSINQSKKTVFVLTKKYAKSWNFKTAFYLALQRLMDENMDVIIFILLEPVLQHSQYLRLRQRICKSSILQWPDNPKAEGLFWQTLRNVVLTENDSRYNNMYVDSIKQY
SMILES,IC50 (TLR7),IC50 (TLR8)
"O=C(CC1(F)CCNCC1)N[C@@H]1C[C@H](C(F)(F)F)CN(c2ccc(C(F)(F)F)c3ncccc23)C1 [Example 117, 2-(4-fluoropiperidin-4-yl)-N-[(3R,5S)-5-(trifluoromethyl)-1-[8-(trifluoromethyl)quinolin-5-yl]piperidin-3-yl]acetamide]",< 75 nM,< 75 nM
"N#Cc1ccc(N2C[C@H](NC(=O)CC3(F)CCNCC3)C[C@H](C(F)(F)F)C2)c2nccnc12 [Example 118, N-[(3R,5S)-1-(8-cyanoquinoxalin-5-yl)-5-(trifluoromethyl)piperidin-3-yl]-2-(4-fluoropiperidin-4-yl)acetamide]",< 75 nM,< 75 nM
"N#Cc1ccc(N2C[C@H](NC(=O)CC3(N)CC3)C[C@H](C(F)(F)F)C2)c2nccnc12 [Example 119, 2-(1-aminocyclopropyl)-N-[(3R,5S)-1-(8-cyanoquinoxalin-5-yl)-5-(trifluoromethyl)piperidin-3-yl]acetamide]",75 to 150 nM,< 75 nM
"C[C@H]1C[C@@H](NC(=O)CC2(N)CC2)CN(c2ccc(C#N)c3nccnc23)C1 [Example 120, 2-(1-aminocyclopropyl)-N-[(3R,5S)-1-(8-cyanoquinoxalin-5-yl)-5-methylpiperidin-3-yl]acetamide]",< 75 nM,< 75 nM
"O=C(N[C@@H]1C[C@H](C(F)(F)F)CN(c2ccc(C(F)(F)F)c3ncccc23)C1)[C@@H]1CCCN1 [Example 123, (2S)—N-[(3R,5S)-5-(trifluoromethyl)-1-[8-(trifluoromethyl)quinolin-5-yl]piperidin-3-yl]pyrrolidine-2-carboxamide]",75 to 150 nM,< 75 nM
"N#Cc1ccc(N2C[C@H](NC(=O)[C@@H]3CCCN3)C[C@H](C(F)(F)F)C2)c2nccnc12 [Example 124, (2S)—N-[(3R,5S)-1-(8-cyanoquinoxalin-5-yl)-5-(trifluoromethyl)piperidin-3-yl]pyrrolidine-2-carboxamide]",< 75 nM,< 75 nM
"N#Cc1ccc(N2C[C@H](NC(=O)[C@@H]3CCCN3)C[C@H](C(F)(F)F)C2)c2cccnc12 [Example 125, (2S)—N-[(3R,5S)-1-(8-cyanoquinolin-5-yl)-5-(trifluoromethyl)piperidin-3-yl]pyrrolidine-2-carboxamide]",< 75 nM,< 75 nM
"N#Cc1ccc(N2C[C@H](NC(=O)[C@H]3CCCN3)C[C@H](C(F)(F)F)C2)c2cccnc12 [Example 126, (2R)—N-[(3R,5S)-1-(8-cyanoquinolin-5-yl)-5-(trifluoromethyl)piperidin-3-yl]pyrrolidine-2-carboxamide]",75 to 150 nM,> 150 nM
"C[C@H]1C[C@@H](NC(=O)C[C@@H]2CCNC[C@@H]2F)CN(c2ccc(C#N)c3ncncc23)C1 [Example 131, N-[(3R,5S)-1-(8-cyanoquinazolin-5-yl)-5-methylpiperidin-3-yl]-2-[(3R,4S)-3-fluoropiperidin-4-yl]acetamide]",< 75 nM,> 150 nM
"C[C@H]1C[C@@H](NC(=O)C[C@H]2CCNC[C@H]2F)CN(c2ccc(C#N)c3ncncc23)C1 [Example 132, N-[(3R,5S)-1-(8-cyanoquinazolin-5-yl)-5-methylpiperidin-3-yl]-2-[(3S,4R)-3-fluoropiperidin-4-yl]acetamide]",< 75 nM,75 to 150 nM

# More lines, now with the values ahead:
IC50 (TLR7),IC50 (TLR8),SMILES
75 to 150 nM,< 75 nM,"Cc1ncc(N2C[C@@H](C)C[C@@H](NC(=O)CC3(N)CC3)C2)c2cccnc12 [Example 121, 2-(1-aminocyclopropyl)-N-[(3R,5S)-5-methyl-1-(8-methyl-1,7-naphthyridin-5-yl)piperidin-3-yl]acetamide]"
> 150 nM,< 75 nM,"Cc1ccc(N2C[C@@H](C)C[C@@H](NC(=O)[C@@H]3CCCN3)C2)c2cccnc12 [Example 122, (2S)—N-[(3R,5S)-5-methyl-1-(8-methylquinolin-5-yl)piperidin-3-yl]pyrrolidine-2-carboxamide]"
75 to 150 nM,< 75 nM,"C[C@H]1C[C@@H](NC(=O)[C@@H](N)CC(N)=O)CN(c2ccc(C(F)(F)F)c3nccnc23)C1 [Example 127, (2S)-2-amino-N-[(3R,5S)-5-methyl-1-[8-(trifluoromethyl)quinoxalin-5-yl]piperidin-3-yl]butanediamide]"
< 75 nM,< 75 nM,"C[C@H]1C[C@@H](NC(=O)[C@@H](N)CC(N)=O)CN(c2ccc(C(F)(F)F)c3ncccc23)C1 [Example 128, (2S)-2-amino-N-[(3R,5S)-5-methyl-1-[8-(trifluoromethyl)quinolin-5-yl]piperidin-3-yl]butanediamide]"
75 to 150 nM,< 75 nM,"Cc1c(F)cc(N2C[C@@H](C)C[C@@H](NC(=O)[C@@H](N)CC(N)=O)C2)c2cccnc12 [Example 129, (2S)-2-amino-N-[(3R,5S)-1-(7-fluoro-8-methylquinolin-5-yl)-5-methylpiperidin-3-yl]butanediamide]"
75 to 150 nM,< 75 nM,"Cc1ccc(N2C[C@@H](C)C[C@@H](NC(=O)[C@@H](N)CC(N)=O)C2)c2cccnc12 [Example 130, (2S)-2-amino-N-[(3R,5S)-5-methyl-1-(8-methylquinolin-5-yl)piperidin-3-yl]butanediamide]"
< 75 nM,< 75 nM,"Cc1ccc(N2C[C@@H](C)C[C@@H](NC(=O)C(N)C3CC3)C2)c2cccnc12 (stereo partly drawn) [Example 133, 2-Amino-2-cyclopropyl-N-[(3R,5S)-5-methyl-1-(8-methyl-quinolin-5-yl)-piperidin-3-yl]-acetamide]"
75 to 150 nM,75 to 150 nM,"Cc1c(F)cc(N2C[C@@H](C)C[C@@H](NC(=O)[C@@H](N)[C@@H](C)O)C2)c2cccnc12 [Example 134, (2S,3R)-2-Amino-N-[(3R,5S)-1-(7-fluoro-8-methyl-quinolin-5-yl)-5-methyl-piperidin-3-yl]-3-hydroxy-butyramide]"
< 75 nM,< 75 nM,"Cc1c(F)cc(N2C[C@@H](C)C[C@@H](NC(=O)[C@H](N)CO)C2)c2cccnc12 [Example 135, (R)-2-Amino-N-[(3R,5S)-1-(7-fluoro-8-methyl-quinolin-5-yl)-5-methyl-piperidin-3-yl]-3-hydroxy-propionamide]"
75 to 150 nM,< 75 nM,"Cc1ncc(N2C[C@H](NC(=O)CC3CCNCC3F)C[C@H](C(F)(F)F)C2)c2cccnc12 (stereo partly drawn) [Example 136, 2-(3-Fluoro-piperidin-4-yl)-N-[(3R,5S)-1-(8-methyl-[1,7]naphthyridin-5-yl)-5-trifluoromethyl-piperidin-3-yl]-acetamide]"
